Data from BigSolDB 2.1.

COc1c(N2CCNC(C)C2)c(F)cc2c(=O)c(C(=O)O)cn(C3CC3)c12 (centres undefined)
solubility (mole fraction) (in ethyl acetate, 278.15 K): 0.00378
solubility (mole fraction) (in ethyl acetate, 283.15 K): 0.0044
solubility (mole fraction) (in ethyl acetate, 288.15 K): 0.00509
solubility (mole fraction) (in ethyl acetate, 293.15 K): 0.00588
solubility (mole fraction) (in ethyl acetate, 298.15 K): 0.00679
solubility (mole fraction) (in ethyl acetate, 303.15 K): 0.00778
solubility (mole fraction) (in ethyl acetate, 308.15 K): 0.00893
solubility (mole fraction) (in ethyl acetate, 313.15 K): 0.0102
solubility (mole fraction) (in ethyl acetate, 318.15 K): 0.0117
solubility (mole fraction) (in isopropanol, 273.15 K): 0.000123
solubility (mole fraction) (in isopropanol, 278.15 K): 0.000158
solubility (mole fraction) (in isopropanol, 283.15 K): 0.000204
solubility (mole fraction) (in isopropanol, 288.15 K): 0.000254
solubility (mole fraction) (in isopropanol, 293.15 K): 0.000322
solubility (mole fraction) (in isopropanol, 298.15 K): 0.000401
solubility (mole fraction) (in isopropanol, 303.15 K): 0.000498
solubility (mole fraction) (in isopropanol, 308.15 K): 0.000613
solubility (mole fraction) (in isopropanol, 313.15 K): 0.000751
solubility (mole fraction) (in isopropanol, 318.15 K): 0.000912
solubility (mole fraction) (in methanol, 273.15 K): 0.00019
solubility (mole fraction) (in methanol, 278.15 K): 0.000232
solubility (mole fraction) (in methanol, 283.15 K): 0.000294
solubility (mole fraction) (in methanol, 288.15 K): 0.00036
solubility (mole fraction) (in methanol, 293.15 K): 0.000438
solubility (mole fraction) (in methanol, 298.15 K): 0.000531
solubility (mole fraction) (in methanol, 303.15 K): 0.000637
solubility (mole fraction) (in methanol, 308.15 K): 0.000752
solubility (mole fraction) (in methanol, 313.15 K): 0.000902
solubility (mole fraction) (in methanol, 318.15 K): 0.00107
solubility (mole fraction) (in n-butanol, 273.15 K): 0.00105
solubility (mole fraction) (in n-butanol, 278.15 K): 0.00122
solubility (mole fraction) (in n-butanol, 283.15 K): 0.00143
solubility (mole fraction) (in n-butanol, 288.15 K): 0.00169
solubility (mole fraction) (in n-butanol, 293.15 K): 0.00195
solubility (mole fraction) (in n-butanol, 298.15 K): 0.00225
solubility (mole fraction) (in n-butanol, 303.15 K): 0.0026
solubility (mole fraction) (in n-butanol, 308.15 K): 0.00299
solubility (mole fraction) (in n-butanol, 313.15 K): 0.00344
solubility (mole fraction) (in n-butanol, 318.15 K): 0.00395
solubility (mole fraction) (in n-propanol, 273.15 K): 0.000364
solubility (mole fraction) (in n-propanol, 278.15 K): 0.000445
solubility (mole fraction) (in n-propanol, 283.15 K): 0.000545
solubility (mole fraction) (in n-propanol, 288.15 K): 0.000655
solubility (mole fraction) (in n-propanol, 293.15 K): 0.000778
solubility (mole fraction) (in n-propanol, 298.15 K): 0.000922
solubility (mole fraction) (in n-propanol, 303.15 K): 0.00109
solubility (mole fraction) (in n-propanol, 308.15 K): 0.00127
solubility (mole fraction) (in n-propanol, 313.15 K): 0.00149
solubility (mole fraction) (in n-propanol, 318.15 K): 0.00173
solubility (mole fraction) (in toluene, 273.15 K): 5.9e-05
solubility (mole fraction) (in toluene, 278.15 K): 8.1e-05
solubility (mole fraction) (in toluene, 283.15 K): 0.000109
solubility (mole fraction) (in toluene, 288.15 K): 0.000146
solubility (mole fraction) (in toluene, 293.15 K): 0.000199
solubility (mole fraction) (in toluene, 298.15 K): 0.000261
solubility (mole fraction) (in toluene, 303.15 K): 0.000344
solubility (mole fraction) (in toluene, 308.15 K): 0.000446
solubility (mole fraction) (in toluene, 313.15 K): 0.000577
solubility (mole fraction) (in toluene, 318.15 K): 0.000742
